The values that follow are results of earlier work, collected in paper PMC5613053 (Investigational New Drugs, 2017).

The subject of one data set is MV4–11 cells. Conditions: read-out: Concentration inhibiting growth of MV4–11 cells; cited from earlier work.
The subject of the next data set is MV4–11-luc cells. Also noted: method as in PMID 24046014. Conditions: maximum tolerated dose; cited from earlier work.

For `CC1(COc2ccc3c(c2)ncn3-c2ccc3cccc(N4CCC(N)CC4)c3n2)COC1` [crenolanib], in the data set on MV4–11 cells, the IC50 is 1.3 nM. Moreover, the “Efficacy in xenograft model” value in the data set with MV4–11-luc cells is reported as “limited efficacy”.
